Assay results reported in US20040082510A1, “Pyk2 phosphorylation by her3 induces tumor invasion” (priority 2001, published 2004).

Experiments:
[1] = test system: PYK2 tyrosine phosphorylation in SF767 gliomas; experiment: PYK2 tyrosine phosphorylation in SF767 gliomas (immunoprecipitation, anti-phosphotyrosine western blot); format: cell-based, human; settings: for HRG-induced tyrosine phosphorylation of PYK2: 5 μg/ml HRG 20 min, pretreatment with PP1 5 μM 30 min, AG825 10 μM 1 hour or Wortmannin 100 nM 30 min
Method: (§1) SF767 gliomas were pretreated with 5 μM PP1 for 30 minutes and stimulated either with 5 μg ml^−1 Heregulin (HRG, left panel) or 5 μM lonomycin (IONO, right panel) for 20 min and 5 min, respectively. b, PYK2 coprecipitation with HER3 depends on the HER2 kinase activity, and tyrosine phosphorylation of PYK2 is proportional to its binding to HER3. SF767 gliomas were pretreated with 10 μM AG825 for 1 hour and stimulated with 5 μg ml^−1 Heregulin for 20 min (HRG). Cell lysates were subjected to immunoprecipitation (IP) using polyclonal anti-PYK2 (α-PYK2) or monoclonal anti-HER3 (α-HER3) antibodies. Tyrosine phosphorylation level was analysed by western blotting (WB) with monoclonal anti-phosphotyrosine antibody (α-4G10) (a, upper panels, and b, upper panel). Equal loading of proteins was checked by reblotting with α-PYK2 and α-HER3 antibodies, respectively (a, lower panels, and b, middle and lower panels). PYK2 coprecipitating with HER3 was detected by probing the membrane with α-PYK2 antibody (b, middle panel, lanes 1-4). Unstimulated cells are indicated by NS.
SF763, SF767 or transfected HEK293 cells were either left untreated or were pretreated with PP1 (10 μM), AG825 (10 μM), Wortmannin (WT) (100 nM) and PD98059 (25 μM) for 30-60 min following stimulation with 5 μg/ml recombinant human HRG for 20 min or with 5 μM IONO for 5 min at 37° C. Upon HRG or IONO stimulation, the cells were lysed on ice in a lysis buffer (50 mM HEPES pH 7.5, containing 150 mM NaCl, 1 mM EDTA, 10% (v/v) glycerol, 1% (v/v) Triton X-100, 1 mM sodium fluoride, 1 mM phenylmethylsulfonyl fluoride, 1 mM sodium orthovanadate, 1 mM β-glycerolphosphate, […] aprotinin). Crude lysates were centrifuged at 12500 g for 20 min at 4° C. For immunoprecipitations, the appropriate antiserum and 30 μl of protein A-Sepharose (Pharmacia) was added to the cleared lysate and incubated for 3 h at 4° C. […]
(§2) Proteins were fractionated by SDS-PAGE and electrophoretically transferred to nitrocellulose filters. […] The substrate reaction was detected on Kodak X-Omat film. […]

[2] = test system: PYK2 coprecipitating with HER3 in SF767 gliomas; experiment: PYK2 coprecipitation with HER3 in SF767 gliomas; format: cell-based, human; settings: AG825 10 μM 1 hour, with or without HRG
Method: as §1, with “NS. […]” for “NS.”
as §2

[3] = test system: SHC tyrosine phosphorylation in SF767 gliomas; experiment: SHC tyrosine phosphorylation in SF767 gliomas; format: cell-based, human; settings: AG825 10 μM 1 hour, 5 μg/ml HRG 20 min
Method: (§3) FIG. 5: PYK2 mediates mitogenicity upon HRG stimulation. a, b, SF767 gliomas were pretreated either with 10 μM AG825 for 1 hour or with 100 nM Wortmannin for 30 min (WT), and then stimulated with 5 μg ml^−1 Heregulin for 20 min (HRG). Tyrosine phosphorylation of SHC was elevated by HRG and attenuated by pretreatment with AG825, but not fully abrogated (a). The same holds also for ERK-2 activity, when cells were pretreated either with AG825 or with WT (b). Cell lysates were used for immunoprecipitation with polyclonal anti-SHC (α-SHC) (a), or polyclonal anti-Erk-2 (α-ERK-2) antibodies (b). α-SHC-immunocomplexes were blotted with a monoclonal anti-phosphotyrosine antibody (α-4G10) (a), whereas α-ERK-2 immunocomplexes were subjected to MAP-kinase assays (b). Phosphorylated MBP is indicated by an arrow. c, Tetracyclin-inducible pheochromocytoma PC12 cells, either stably expressing PYK2-KM (Tet−), or only endogenous PYK2 (Tet+), were pretreated either with 100 nm Wortmannin for 30 min (WT), or 10 μM AG825 for 1 hour prior to stimulation with 5 μg ml^−1 Heregulin for 20 min (HRG). Basal ERK-2 activity is independent of HER2 and Pl3-K, whereas the HRG-stimulated ERK-2 activity is dependent on HER2, Pl3-K and PYK2. […]
as §2

[4] = test system: ERK-2 activity in SF767 gliomas; experiment: MAP-kinase assay on ERK-2 immunocomplexes from SF767 gliomas; format: cell-based, human; settings: AG825 10 μM 1 hour or WT 100 nM 30 min, 5 μg/ml HRG 20 min
Method: as §3, with “PYK2. Overexpression of PYK2-KM leads to a general attenuation of ERK-2 activity (compare Tet− with Tet+ bands).” for “PYK2.”

[5] = test system: ERK-2 activity in PC12 cells; experiment: MAP-kinase assay on ERK-2 immunocomplexes from tetracyclin-inducible PC12 cells (Tet-off PYK2-KM); format: cell-based, rat; settings: AG825 10 μM 1 hour, WT 100 nM 30 min or PYK2-KM expression (Tet−); for HRG-stimulated ERK-2 activity: 5 μg/ml HRG 20 min; for Basal ERK-2 activity: unstimulated
[6] = test system: Pl3-K activity in PC12 cells; experiment: Pl3-K assay on anti-phosphotyrosine immunoprecipitates from tetracyclin-inducible PC12 cells; format: cell-based, rat; settings: PC12 Tet-off; 5 μg/ml HRG 20 min; AG825 10 μM 1 hour or PYK2-KM expression (Tet−)
Method: FIG. 6: PYK2 enhances Pl3-K activity upon HRG stimulation. a, Tetracyclin-inducible pheochromocytoma […], either stably expressing PYK2-KM (Tet−) or only endogenous PYK2 (Tet+), were pretreated either with 100 nm Wortmannin for 30 min (WT), or 10 μM AG825 for 1 hour prior to stimulation with 5 μg ml^−1 Heregulin for 20 min (HRG). Lysates were subjected to α-4G10 immunoprecipitation and Pl3-K assays were performed (see Methods section). Pl3-K activity is strongly dependent on PYK2 upon HRG stimulation, and is diminished by AG825. MAP-kinase and Pl3-kinase assays were performed as described previously (49, 50).

[7] = test system: HER2 tyrosine phosphorylation in PC 12 cells; experiment: HER2 tyrosine phosphorylation in PC 12 cells; format: cell-based, rat; settings: 10 μM AG825, HRG stimulation
Method: (§4) FIGS. 13, 14: PC 12 cells were left untreated or pretreated either with 10 μM AG825, 50 μM PD98059 or both and subsequently stimulated with HRG. Immunoprecipitations of HER2 (α-HER2) or of tyrosyl-phosphorylated proteins (α-PY) were probed with phosphotyrosine antibody (α-PY). […] Reprobing of the blot with HER2 antibody confirms equal loading of proteins. SHC is indicated by an arrow.

[8] = test system: SHC tyrosine phosphorylation in PC 12 cells; experiment: SHC tyrosine phosphorylation in PC 12 cells; format: cell-based, rat; settings: 10 μM AG825, HRG stimulation
Method: as §4

[9] = test system: C6 gliomas; experiment: Tumor invasion assay, C6 gliomas; format: cell-based, rat; settings: 5 μg/ml HRG, 16 h, PD98059 25 μM 30 min pretreatment or retroviral PYK2-KM
Method: (§5) FIG. 7: PYK2-KM inhibits tumor invasion upon HRG stimulation. a, C6 gliomas were retrovirally infected with either a control vector pLXSN (mock), PYK2, dominant negative PYK2 mutant PYK2-KM, or pretreated with a MEK1 inhibitor PD98059 (25 μM) for 30 min, and tumor invasion assays were performed (see Methods section). b, Invasion is supressed to the same extent by PD98059 and by overexpression of PYK2-KM (p>0.95). c, SF767 gliomas were retrovirally infected with pLXSN or PYK2-KM. d, Tumor invasion is supressed by overexpresssion of PYK2-KM in SF767 (p<0.008), and also in SF763 cell line (p<0.005), as shown by using the same assay. Representative bright-field micrographs of cells that migrated through the 8 μm filters in 16 h are shown. […]
(§6) Amphotrophic virus titer, which was generated by transient transfection of retrovirus expression plasmids into the virus producer cell line PhoenixA (ATCC), was determined by infecting NIH-3T3 cells with serial dilutions of retrovirus-containing, cell-free PhoenixA supernatants and counting the number of G418-resistant colonies. […]
(§7) Tumor invasion assay was performed as describ d previously (31). […] Following 16 h of incubation, non-invading cells were removed with cotton swabs, whereas invading cells were fixed, stained with Crystal violet and counted under bright-field illumination using an Axiovert135 inverted microscope (Zeiss). […]

[10] = test system: ERK-2 phosphorylation in C6 glioma cells; experiment: Phosphorylated ERK-2 in whole cell lysates of C6 glioma cells; format: cell-based, rat; settings: in parallel to the tumor invasion assay, PD98059 or PYK2-KM
Method: (§8) FIGS. 15, 16: Whole cell lysates (WCL) of C6 glioma cells were prepared in parallel to the tumor invasion assay and the content of phosphorylated ERK-2 was assessed by probing with a specific phospho-ERK2 antibody (upper panel). To confirm equal loading of proteins the blot was reprobed with a pan-ERK antibody. (16) The same experimental procedure was used as in (15) for SF767 cells. Phosphorylated ERK-2 is indicated by an arrow. Dominant-negative PYK2-KM abrogates ERK-2 activity to the same extent as MEK-1 inhibitor PD98059.
(§9) Proteins were fractionated by SDS-PAGE and electrophoretically transferred to nitrocellulose filters. For immunoblot analysis, nitrocellulose filters were first incubated with mouse monoclonal or rabbit polyclonal primary antibodies for 3 h at 4° C. Next, a HRP-coupled goat anti-mouse or goat anti-rabbit secondary antibody was added (Biorad), followed by an enhanced chemoluminescence (ECL) substrate reaction (Amersham). The substrate reaction was detected on Kodak X-Omat film. Filters that were used more than once with different antibodies were stripped according to the manufacturer's protocol, blocked and reprobed.

[11] = test system: ERK-2 phosphorylation in SF767 cells; experiment: Phosphorylated ERK-2 in whole cell lysates of SF767 cells; format: cell-based, human; settings: in parallel to the tumor invasion assay, PD98059 or PYK2-KM
Method: as §8, §9

[12] = test system: SF767 gliomas; experiment: Tumor invasion assay, SF767 gliomas; format: cell-based, human; settings: HRG, 16 h, retroviral infection with PYK2-KM
Method: as §5, §6, §7

[13] = test system: SF763 cell line; experiment: Tumor invasion assay, SF763 cell line; format: cell-based, human; settings: HRG, 16 h, retroviral infection with PYK2-KM
Method: as §5, §6, §7

COc1cc(/C=C(\C#N)C(N)=O)cc(CSc2nc3ccccc3s2)c1O [AG825]
HRG-induced tyrosine phosphorylation of PYK2 [1]: attenuated | Amount of PYK2 that coprecipitates with HER3 [2]: decreases | HRG-stimulated tyrosine-phosphorylation of SHC [3]: diminished, but not fully abrogated | HRG-stimulated ERK-2 activity [4]: diminished, but not fully abrogated | HRG-stimulated ERK-2 activity [5]: attenuated | Basal ERK-2 activity [5]: not influenced | Pl3-K activity upon HRG stimulation [6]: diminished | Tyrosine phosphorylation of HER2 [7]: completely inhibits | Tyrosine phosphorylation of SHC [8]: completely inhibits

COc1cccc(-c2cc(=O)c3ccccc3o2)c1N [PD98059]
Tumor invasion (invasiveness) [9]: strongly attenuated | ERK-2 phosphorylation [10]: decrease | ERK-2 phosphorylation [11]: decrease

Cc1ccc(-c2nn(C(C)(C)C)c3ncnc(N)c23)cc1 [PP1]
Ionomycin-induced tyrosine phosphorylation of PYK2 ([1]; 5 μM IONO 5 min, PP1 5 μM 30 min pretreatment): dependent on c-src activity | HRG-induced tyrosine phosphorylation of PYK2 [1]: independent of c-src

PYK2-KM: dominant negative, kinase-inactive PYK2 mutant K457M, expressed by retroviral infection or Tet-off system
HRG-stimulated ERK-2 activity [5]: abrogated | Basal ERK-2 activity [5]: abrogated | Pl3-K activity upon HRG stimulation [6]: attenuates | Tumor invasion (invasiveness) [9]: comparable abrogation of the invasive phenotype | Tumor invasion (invasive behaviour) [12]: strong inhibition | Tumor invasion (invasive behaviour) [13]: strong inhibition | ERK-2 phosphorylation [10]: decrease | ERK-2 phosphorylation [11]: decrease
